# Measurements taken from US10093898B2, “Purification of functional human astrocytes” (The Board of Trustees of the Leland Stanford Junior …, priority 2015, dated 2018).
# Test system: purified human astrocytes
# Assay: Calcium imaging of purified human astrocytes (Fluo-4 AM) after ATP or glutamate stimulation
# Format: cell-based
# Details: for calcium response (increased intracellular calcium concentrations): 30 nM-670 μM
# Procedure: Therefore, we performed calcium imaging on purified human astrocytes after loading cells grown in vitro with the calcium sensitive dye Fluo-4 AM.
# Calcium imaging. Purified human astrocytes were plated at 100,000 cells/imaging chamber (MatTek, P35GC-1.0-14-C) coated with poly-d-lysine. Cells were grown for at least 5 days before imaging. Cells were incubated for 15 minutes with 2 μM Fluo 4 AM (Invitrogen, F-14201) and then washed 3 times with PBS and replaced with 1.5 ml of growth medium per chamber. The cells were then let to recover from mechanical stimulation for 3 minutes and then imaged in a humidified, temperature-controlled chamber with a 40× oil objective. Images were taken at 0.7 s intervals and analyzed with ImageJ.
Compound,calcium response (increased intracellular calcium concentrations) (fetal human astrocytes),temporal pattern of calcium response (postnatal human astrocytes),calcium response (increased intracellular calcium concentrations) (postnatal human astrocytes),"time for intracellular calcium to decrease to baseline levels (postnatal human astrocytes, independent of concentration)"
Nc1ncnc2c1ncn2[C@@H]1O[C@H](COP(=O)(O)OP(=O)(O)OP(=O)(O)O)[C@@H](O)[C@H]1O [ATP],responded,asynchronous oscillatory response,responded to both,–
N[C@@H](CCC(=O)O)C(=O)O [glutamate],–,synchronous non-oscillatory response,responded to both,≤ 10 s
